Several values for one entry are separate records, joined by “and”; a condition that tells them apart may be missing. Equal values may be shown once.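 The compound was tested at five concentrations on cells cultured in 96-well plates, with a 48-hour exposure period. Abbreviation: GI50, concentration required for 50% inhibition of growth. TGI is the concentration that stops growth completely.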 Where a SMILES comes first, the peptide text is derived from it.
What was measured:
Assay in all cases: NCI-60 cell line screen, 48 h
A549 NSCLC = test system: A549 NSCLC
HCT-116 colon = test system: HCT-116 colon
HCC-2998 colon = test system: HCC-2998 colon
PC-3 prostate = test system: PC-3 prostate
MDA-MB-435 = test system: MDA-MB-435
NCI-H226 lung = test system: NCI-H226 lung
RPMI-8226 leukemia = test system: RPMI-8226 leukemia
SK-MEL-2 melanoma = test system: SK-MEL-2 melanoma
ACHN renal = test system: ACHN renal
MDA-MB-231 breast = test system: MDA-MB-231 breast

Structure (SMILES) | GI50 (A549 NSCLC) | TGI (A549 NSCLC) | GI50 (HCT-116 colon) [µM] | TGI (HCT-116 colon) [µM] | GI50 (HCC-2998 colon) [µM] | TGI (HCC-2998 colon) | GI50 (PC-3 prostate) [µM] | TGI (PC-3 prostate) [µM] | GI50 (MDA-MB-435) [µM] | TGI (MDA-MB-435) [µM] | GI50 (NCI-H226 lung) | TGI (NCI-H226 lung) | GI50 (RPMI-8226 leukemia) [µM] | TGI (RPMI-8226 leukemia) [µM] | GI50 (SK-MEL-2 melanoma) [µM] | TGI (SK-MEL-2 melanoma) | GI50 (ACHN renal) [µM] | TGI (ACHN renal) [µM] | GI50 (MDA-MB-231 breast) [µM] | TGI (MDA-MB-231 breast) [µM]
CCOC(=O)c1c(C)nc2ccc(Cl)cc2c1-c1ccccc1 | 25.6 µM | > 100 µM | 12.3 | 28.8 | 19.4 | 46.9 µM | 20 | 65.9 | 23.9 | 68.4 | 19.2 µM | 39.7 µM | 15.9 | 40 | 15 | 34.1 µM | 17.1 | 35 | 17.1 | 38.4
C=C1C(=O)O[C@@H]2C(=O)[C@@H](C)[C@@H]3C=CC(=O)[C@@]3(C)[C@@H](OC(=O)/C(C)=C\C)[C@H]12 | – | 32.6 µM | – | 0.681 | – | 3.23 µM | – | 6.04 | – | 3.69 | – | 8.36 µM | – | 1.25 | – | 9.89 µM | – | 0.609 | – | 3.6
CCN(CC)CCOc1ccc(/C(=C(\C)Cc2ccc(OC)cc2)c2ccc(OC(=O)NCc3ccccc3)cc2)cc1 | 2.15 µM | 4.7 µM | 1.57 | 2.97 | 1.84 | 3.62 µM | 1.94 | 3.88 | 1.86 | 3.97 | 4.71 µM | 18.7 µM | 2.13 | 4.4 | 2.16 | 4.9 µM | 1.85 | 3.58 | 1.86 | 3.47
CC#CS(=O)(=O)c1ccccc1 | – | 31.4 µM | – | 17.6 | – | 13.9 µM | – | 25.2 | – | 22.9 | – | 24.1 µM | – | – | – | 32.5 µM | – | 12.8 | – | 22.8
S=c1nc2[nH]ncc2c(N/N=C/c2ccccc2)[nH]1 | 98.3 µM | > 100 µM | 87.9 | > 100 | > 100 | > 100 µM | > 100 | > 100 | > 100 | > 100 | > 100 µM | > 100 µM | 60.6 | > 100 | > 100 | > 100 µM | 63.3 | > 100 | 19.8 | 71.4
COc1ccc(/C=C2\CN(Cc3cn(CCCNc4ccnc5cc(Cl)ccc45)nn3)C/C(=C\c3ccc(OC)c(OC)c3)C2=O)cc1OC | 1.71 µM | 4.11 µM | 0.577 | 2.1 | 1.41 | 2.9 µM | 0.843 | 3.22 | 1.12 | 5.32 | 1.97 µM | 4.74 µM | 1.46 | 5.65 | 2.32 | 6.84 µM | 1.64 | 3.11 | 1.7 | 3.48
N#CC(=S)Nc1ccc(Cl)c(Cl)c1 | – | > 100 µM | – | > 50 | – | 34.8 µM | – | 44.8 | – | > 70.5 | – | 60.5 µM | – | 13.4 | – | 33.2 µM | – | 82.5 | – | 43.4
O=C(O)C1NCCc2c1[nH]c1ccccc21 (configuration not stated) | > 100 µM | > 100 µM | > 100 | > 100 | > 100 | > 100 µM | – | > 10 | – | > 10 | – | > 100 µM | – | > 10 | – | > 100 µM | > 100 | > 100 | – | > 10
O=C(Nc1nccs1)c1cc2c(cc1Cl)Sc1nccn1S2(=O)=O | 23.8 µM | 63.4 µM | 16.1 | 29.5 | 15.9 | 29.4 µM | 16.8 | 33.4 | – | 31.3 | 19.6 µM | 35.6 µM | 9.29 | 23.6 | 17.4 | 33.1 µM | 17.7 | 32.2 | 19.5 | 36.2
CN1CCC[C@@H]1CCO[C@](C)(c1ccccc1)c1ccc(Cl)cc1 | 7.92 µM | 21.7 µM | 3.62 | 13.7 | 3.41 | 13.7 µM | 4.58 | 17 | 2.46 | 8.19 | 10.5 µM | 25.3 µM | – | – | 5 | 16.2 µM | 6.31 | 19 | 2.79 | 13.5
O=C1N=C(c2ccccc2)OC1C(=O)c1ccccc1 (configuration not stated) | – | > 100 µM | – | > 100 | – | > 100 µM | – | > 100 | – | > 100 | – | > 100 µM | – | > 100 | – | > 100 µM | – | > 100 | – | > 100
ClCc1ccc(-c2ccc(Cn3cnc4c(Cl)nc(Cl)nc43)cc2)cc1 | 1.73 µM | 3.59 µM | 1.58 | 2.92 | 1.41 | 2.9 µM | 2.21 | 5.28 | 2.74 | 9.37 | 8.85 µM | 28.5 µM | 2.33 | 5.77 | 1.88 | 3.42 µM | 2.05 | 4.25 | 2.76 | 7.14
O=C(Nc1ccccc1)Nc1cccc(-n2cc(-c3ccncc3)c(-c3ccc(O)c(Cl)c3)n2)c1 | 3.64 µM | > 100 µM | 3.41 | 13.9 | 3.19 | 9.79 µM | 3.19 | 19.6 | 3.03 | 17 | 7.35 µM | > 100 µM | 2.35 | 6.13 | 2.49 | 5.63 µM | 2.95 | 34.7 | 1.98 | 5.23
C/C(CC(=O)NNc1ccc([N+](=O)[O-])cc1)=N\Nc1ccc([N+](=O)[O-])cc1 | 5.42 µM | > 100 µM | 6.04 | 28.3 | 6.4 | > 100 µM | 4.26 | > 100 | 4.56 | > 100 | 17.9 µM | > 100 µM | 7.91 | > 100 | 11 | 87.5 µM | 5.45 | > 100 | 2.12 | 19.7
C=C1C(=O)O[C@H]2[C@H]1CC/C(Cn1cc(Cn3ccc4ccccc43)nn1)=C\CC[C@@]1(C)O[C@@H]21 | 13.1 µM | 27.4 µM | 0.762 | 2.15 | 1.93 | 3.66 µM | 1.47 | 2.98 | 1.7 | 3.39 | 1.53 µM | 3.06 µM | 1.68 | 4.7 | 1.73 | 3.96 µM | 1.18 | 2.43 | 1.31 | 2.84
CC(=O)O[C@H]1C(=O)O[C@@H]2C[C@H]3C(C)=CC(=O)[C@@H](O)[C@]3(C)[C@H]3[C@@]4(O)OC[C@]32[C@@H]1[C@@H](C)[C@H]4O | 0.23 µM and 0.431 µM | 3.32 µM and 3.93 µM | < 0.01 | – | 0.032 | 0.548 µM and 0.271 µM | – | 0.137 | – | 0.233 | < 0.0205 µM and 0.0366 µM | 0.0775 µM and 0.166 µM | < 0.0142 | 0.0989 | 0.0283 | 0.197 µM and 0.259 µM | – | 0.394 | – | 0.399
CNNCc1ccc(C(=O)NC(C)C)cc1 | > 500 µM | > 500 µM | – | > 500 | > 500 | > 500 µM | – | > 500 | – | > 500 | > 500 µM | > 500 µM | – | > 500 | – | > 500 µM | – | > 500 | – | > 500
COc1ccc(N(CC(=O)NCCC[Te]c2ccccc2)C(=O)CCSC2=C(C)C(=O)c3ccccc3C2=O)cc1 | 0.302 µM | 1.07 µM | 0.406 | 1.72 | 1.67 | 4.44 µM | 0.656 | 2.91 | 2.67 | 8.11 | – | – | 1.02 | 5.66 | 2.31 | 5.49 µM | 1.57 | 3.47 | 1.22 | 3.46
CC(C)CC(NC(=O)C(CC(C)C)NC(=O)C(Cc1cnc[nH]1)NC(=O)C(C)NC(=O)C(NC(=O)C(C)NC(=O)C(Cc1c[nH]c2ccccc12)NC(=O)C(CCC(=O)O)NC(=O)C(N)Cc1ccccc1)C(C)C)C(N)=O (configuration not stated) (H-FEWAVAHLL-NH2; configuration not given here) | > 100 µM | > 100 µM | > 100 | > 100 | > 100 | > 100 µM | – | > 12.5 | – | > 12.5 | – | > 12.5 µM | > 100 | > 100 | > 100 | > 100 µM | – | > 100 | – | > 12.5
O=C1OCc2c1cc(F)cc2[N+](=O)[O-] | > 100 µM | > 100 µM | > 100 | > 100 | > 100 | > 100 µM | > 100 | > 100 | > 100 | > 100 | > 100 µM | > 100 µM | > 100 | > 100 | > 100 | > 100 µM | > 100 | > 100 | > 100 | > 100
COc1ccc(/C(C)=C(\c2ccc(Cl)cc2)c2ccc(OCCN3CCCC3)cc2)cc1F | 3.01 µM | 7.01 µM | 2.05 | 5.64 | 3.44 | 6.94 µM | 3.04 | 6.71 | 1.48 | 4.65 | 4.47 µM | 8.88 µM | 3.57 | 9.23 | 4.27 | 8.4 µM | 4.06 | 7.44 | 3.56 | 6.97
O=[N+]([O-])c1cc(CCl)ccc1CCl | – | 16.9 µM | – | 3.26 | – | 4.01 µM | – | 3.08 | – | 5.05 | – | 11 µM | – | 3.91 | – | 7.83 µM | – | 3.09 | – | 4.5
Clc1cc(Cl)c(Cl)c(-c2nc(-c3cccnc3)cs2)c1 | 24.8 µM | > 100 µM | 5.3 | > 100 | – | – | 59.4 | > 100 | 3.39 | 29.2 | 27.4 µM | 85.8 µM | 17.9 | 80.8 | 22.1 | 81.9 µM | 22.2 | 72.3 | 53 | > 100
CCOC(=O)c1ccc(N(CCOS(C)(=O)=O)CCOS(C)(=O)=O)cc1C | 44.5 µM | > 100 µM | 33.4 | > 100 | 28.1 | 66.6 µM | 30.4 | > 100 | 48.5 | > 100 | – | – | 22.2 | > 100 | 28.6 | 67.5 µM | 9.94 | 42.7 | 77.9 | > 100
Cc1n[nH]c(=S)n1/N=C/c1ccc(F)c(Oc2ccccc2)c1 | 42.2 µM | > 100 µM | 36 | > 100 | 69.5 | > 100 µM | 79.6 | > 100 | 28.6 | 77.1 | > 100 µM | > 100 µM | 42.7 | > 100 | – | – | > 100 | > 100 | 41.2 | > 100
CCCCCCCC/C=C/CCCCCCCC1=NC(C)(C)CN1C(C)C | – | – | 1.4 | 2.7 | 1.42 | 2.72 µM | 1.31 | 2.83 | 1.6 | 3.01 | 1.75 µM | 4.52 µM | – | – | – | – | 1.65 | 3.01 | 1.59 | 2.97
C=C1C(=O)O[C@H]2[C@H]1CC/C(COC(=O)CCCCCCCCC(=O)OC/C1=C/CC[C@@]3(C)O[C@H]3[C@H]3OC(=O)C(=C)[C@@H]3CC1)=C\CC[C@@]1(C)O[C@@H]21 | 6.63 µM | 22.1 µM | – | – | 1.9 | 3.58 µM | 1.99 | 4.35 | 2.02 | 4.59 | 2.75 µM | 7.24 µM | 2.92 | 8.29 | 2.8 | 8.2 µM | 1.8 | 3.55 | 1.92 | 3.79

From PubChem BioAssay (NCI)
